System: Human lung epithelial cell line and lung cancer cell lines
Assay: cell cultivation in TMGG (tolerance)
Type: cell-based
Conditions: cultivated in 0.01˜3.0M TMGG with all necessary supplements, up to 48 hours
Description: Human lung epithelial cell line and lung cancer cell lines were purchased from ATCC and cultivated according to manufacturer's protocols at 37° C. under 5% CO2. Cells were passaged at about 50%-70% confluence by exposing the cells to trypsin/EDTA for about 1 min and then rinsing two times in HBSS containing trypsin inhibitor. The detached cells were replated at 1:5 dilutions in fresh EpiLife medium with HKGS supplements. For miRNA transfection, pri-/pre-miR-302 prepared from Example 1 was dissolved in 0.01˜5.0M, preferably 0.1˜2.0M, of TMGG solution at a desired concentration up to 5 mg/ml and then directly applied to cell culture medium based on the miRNA amount needed. For example, to deliver […] pri-/pre-miR-302, we would need to add 40 μl of the TMGG-dissolved pri-/pre-miR-302 (at 5 mg/ml) into the cell culture medium and then mix well with the cells.

Question: For trimethylglycylglycerins [TMGG], which “adverse effect on cultivated cells” value is on record?
Answer: not showing any adverse effect
